{"source": "patent US20140356497A1", "about": "“Composition” (Natural Biotechnology SPRL, priority 2011, published 2014)", "origin": "cited, not measured here", "system": "Red Delicious apples", "conditions": "0.25% calcium ascorbate; considered unsatisfactory", "data": [{"substance": "calcium ascorbate", "values": [{"measurement": "time for which Red Delicious apples are preserved", "value": "≤ 1", "unit": "h"}]}]}
